Data on 17 compounds can be found in patent publication US8008329B2 (Dong Wha Pharmaceutical Co., Ltd., priority 2008, dated 2011).

The test relates to osteoclast differentiation. The experiment in a line: Osteoclast differentiation in co-culture of mouse bone marrow cells and ST2 cells, TRAP staining (Examples 8-9). It is filed as cell-based. As to conditions: for % number of osteoclast (vs. solvent control group): 0.1 μM each, day 7; for activity at 0.1 µM: Mus musculus, Osteoclast, 168 h, Individual treatment (compounds), day 7, read-out: % number of osteoclast (vs. solvent control group). On the procedure: The differentiation of osteoclast from mouse bone marrow cells was induced by using co-culture system, and inhibitory effect of the drug on osteoclast differentiation was evaluated by treatment of single or combination formulation. Co-culture was performed using mouse bone marrow cells and ST cells of bone marrow-derived stromal cell.
Femora and tibia were aseptically ectomized from 6˜8 week-old male ddY mice to harvest bone marrow cells by a general method using a syringe. The red blood cells were removed from the bone marrow cells, followed by centrifugation. The bone marrow cells were suspended in α-MEM medium supplemented with 10% fetal bovine serum, and the numbers of the eukaryotic cells in the harvested bone marrow cells were counted and then immediately used for a co-culture system.
ST2 cells (RIKEN Cell Bank, Tsukuba, Japan) were cultured in α-MEM medium supplemented with 10% fetal bovine serum until confluent. Then, these cells were diluted to a desired cell number, and used for the experiment.
The bone marrow cells (1×10^5 cells/well) and ST2 cells (3,000 cells/well) prepared in the above were plated in a 96-well plate using α-MEM medium supplemented with 10% fetal bovine serum. At this time, differentiation factors, 1α,25-dihydroxyvitamin D3 (10^−8 M, hereinbelow, referred to as vitamin D3) and dexamethasone (10^−8 M), were co-added to the medium to induce osteoclast differentiation. The medium was replaced with fresh media containing the differentiation factors every 2 to 3 days.
After 7 days, when multinucleated osteoclasts were observed, the medium was removed from the wells, and then the cells were fixed with PBS containing 10% Formalin. Tartrate-Resistant Acid Phosphatase (hereinbelow, referred to as TRAP) was used as a marker to measure the mature osteoclast in consideration of its characteristics showing a positive reaction to a TRAP staining solution. The TRAP staining solution was prepared in such the manner that a substrate, naphtol AS-MS phosphate and a coloring agent (Fast Red Violet LB salt) were dissolved in N,N-dimethylformamide. A 0.1 N NaHCO3 buffer solution containing 50 mM tartaric acid was added thereto, and the mixture was stored at a refrigerator prior to use as a staining solution. The osteoclasts with 6-7 or more nuclei showing a TRAP-positive reaction were counted under a microscope.
Alendronic acid was dissolved in distilled water at a concentration of 0.1 mM, and benzamidine derivatives were dissolved in DMSO at a concentration of 0.1 mM. All of them were diluted 1,000 fold with the differentiation media to a final concentration of 0.1 μM, respectively. In this connection, a control group was maintained in 0.1% DMSO.
As the above described, the sample substances and cells, which were diluted to the desired concentrations, were plated in 96-well plate, and co-cultured. On days 3 and 5 of culture, the media were replaced with fresh differentiation media containing the sample substances. On day 7 of culture, TRAP staining was performed to count the mature multinucleated osteoclast that was formed by differentiation. The mature osteoclasts with 6 or more nuclei were counted under a microscope. The results were expressed as a percentage (%) of the number of mature osteoclast observed in each experimental group, when the number of mature osteoclast in the control group (solvent only) was regarded as 100%. The experiment was performed with 4 wells per experimental group (n=4), and the results were expressed as mean value±standard deviation. In addition, the experiment was repeated at least two times, and Student t-test was applied for significant difference between experimental groups.
The experiment was performed in the same manner as in Example 8 to evaluate the effect of individual or combination treatment of risedronic acid and benzamidine derivatives of Formula 1 on osteoclast differentiation, except using 0.1 μM risedronic acid instead of 0.1 μM alendronic acid. […]

The mark [1] stands for this setting: Combination treatment (alendronic acid + compounds).
The mark [2] stands for this setting: Combination treatment (risedronic acid + compounds).

Marks after values point to notes of the source that are not given here.

Regarding `CN1CCN(CCc2sc(N3CCOCC3)nc2-c2ccc(OCCCCCOc3ccc(C(=N)NO)cc3)cc2)CC1` [Compound 274, N-hydroxy-4-[5-(4-{5-[2-(4-methyl-piperazin-1-yl)-ethyl]-2-morpholin-4-yl-thiazol-4-yl}-phenoxy)-pentyloxy]-benzamidine], the activity at 0.1 µM was 65 ± 8.9%. For the same compound, the “% number of osteoclast (vs. solvent control group)” value (“% number of osteoclast” for short) under setting [1] is 31 ± 2.9^ab %. Further, the “% number of osteoclast” value under setting [2] is 13 ± 1.3^ac %.

For the compound `Cc1nc(-c2ccc(OCCCCCOc3ccc(C(=N)NO)cc3)cc2)c(CCN2CCOCC2)s1` [Compound 231, N-hydroxy-4-(5-{4-[2-methyl-5-(2-morpholin-4-yl-ethyl)-thiazol-4-yl]-phenoxy}-pentyloxy)-benzamidine], the activity at 0.1 µM is 82 ± 14.6%. The “% number of osteoclast” value under setting [1] is 50 ± 9.8^b %. Further, the “% number of osteoclast” value under setting [2] is 40 ± 3.1^ac %.

As to `Cc1sc(N(C)CCO)nc1-c1ccc(OCCCCCOc2ccc(C(=N)NO)cc2)cc1` [Compound 120], the activity at 0.1 µM amounted to 80 ± 6.5%. Besides, the “% number of osteoclast” value under setting [1] is on record as 54 ± 2.4^ab %. Further, under setting [2], the “% number of osteoclast” value is recorded as 55 ± 9.1^ac %.

`CCCN(CCC)CCc1sc(C2CCCCC2)nc1-c1ccc(OCCCCCOc2ccc(C(=N)NO)cc2)cc1` [Compound 251, N-hydroxy-4-(5-{4-[2-cyclohexyl-5-(2-dipropylamino-ethyl)-thiazol-4-yl]-phenoxy}-pentyloxy)-benzamidine]: the activity at 0.1 µM is 45 ± 9.6%. For the same compound, the “% number of osteoclast” value under setting [1] is recorded as 20 ± 6.4^ab %. The “% number of osteoclast” value under setting [2] is reported as 18 ± 4.4^ac %.

As to `CN(C)c1nc(-c2ccc(OCCCCCOc3ccc(C(=N)NO)cc3)cc2)c(CCN2CCSCC2)s1` [Compound 267, N-hydroxy-4-(5-{4-[2-dimethylamino-5-(2-thiomorpholin-4-yl-ethyl)-thiazol-4-yl]-phenoxy}-pentyloxy)-benzamidine], the activity at 0.1 µM was 68 ± 8.6%. Besides, under setting [1], the “% number of osteoclast” value is recorded as 33 ± 5.3^ab %. Further, under setting [2], the “% number of osteoclast” value was 13 ± 2.4^ac %.

Regarding `Cc1sc(NC(=O)CO)nc1-c1ccc(OCCCCCOc2ccc(C(=N)NO)cc2)cc1` [Compound 90, N-hydroxy-4-{5-[4-(2-hydroxyacetylamino-5-methyl-1,3-thiazol-4-yl)phenoxy]pentyloxy}-benzamidine], the activity at 0.1 µM came out at 87 ± 10%. For the same compound, the “% number of osteoclast” value under setting [1] is on record as 54 ± 8.6^ab %. Besides, the “% number of osteoclast” value under setting [2] is 39 ± 8.4^ac %.

As for `CCCCCc1nc(-c2ccc(OCCCCCOc3ccc(C(=N)NO)cc3)cc2)cs1` [Compound 9, N-hydroxy-4-{5-[4-(2-pentyl-1,3-thiazol-4-yl)phenoxy]pentyloxy}-benzamidine], the activity at 0.1 µM worked out at 64 ± 3.4%. Moreover, the “% number of osteoclast” value under setting [1] amounted to 52 ± 15.8%. The “% number of osteoclast” value under setting [2] is listed as 43 ± 2.6^ac %.

Turning to `N=C(NO)c1ccc(OCCCCCOc2ccc(-c3nc(C4CCCCC4)sc3CCN3CCSCC3)cc2)cc1` [Compound 249, N-hydroxy-4-(5-{4-[2-cyclohexyl-5-(2-thiomorpholin-4-yl-ethyl)-thiazol-4-yl]-phenoxy}-pentyloxy)-benzamidine], the activity at 0.1 µM was found to be 36 ± 4%. Under setting [1], the “% number of osteoclast” value is listed as 24 ± 4.0^ab %. The “% number of osteoclast” value under setting [2] was 13 ± 4.8^ac %.

As to `CN1CCN(c2sc(N3CCOCC3)nc2-c2ccc(OCCCCCOc3ccc(C(=N)NO)cc3)cc2)CC1` [Compound 289, N-hydroxy-4-(5-{4-[5-(4-methyl-piperazin-1-yl)-2-morpholine-4-yl-thiazol-4-yl]-phenoxy}-pentyloxy)-benzamidine], the activity at 0.1 µM worked out at 36 ± 9.1%. In addition, the “% number of osteoclast” value under setting [1] is on record as 21 ± 7.4^b %. Also, the “% number of osteoclast” value under setting [2] was 10 ± 3.1^ac %.

`Cc1nc(-c2ccc(OCCCCCOc3ccc(C(=N)NO)cc3)cc2)c(CC2CCCC2)s1` [Compound 45, N-hydroxy-4-{5-[4-(5-cyclopentylmethyl-2-methyl-1,3-thiazol-4-yl)phenoxy]pentyloxy}-benzamidine]: the activity at 0.1 µM was 72 ± 4.6%. In addition, the “% number of osteoclast” value under setting [1] is given as 49 ± 8.1^ab %. In addition, the “% number of osteoclast” value under setting [2] is listed as 38 ± 11.9^ac %.

For the compound `CC(C)c1nc(-c2ccc(OCCCCCOc3ccc(C(=N)NO)cc3)cc2)c(CCNCCN2CCOCC2)s1` [Compound 243, N-hydroxy-4-[5-(4-{2-isopropyl-5-[2-(2-morpholin-4-yl-ethylamino)-ethyl]-thiazol-4-yl}-phenoxy)-pentyloxy]-benzamidine], the activity at 0.1 µM amounted to 36 ± 4.9%. Moreover, the “% number of osteoclast” value under setting [1] is given as 24 ± 7.7^b %. Besides, the “% number of osteoclast” value under setting [2] is on record as 12 ± 2.3^ac %.

Take `CN(CCN1CCOCC1)c1nc(-c2ccc(OCCCCCOc3ccc(C(=N)NO)cc3)cc2)c(C2CCCC2)s1` [Compound 153, N-hydroxy-4-[5-(4-{5-cyclopentyl-2-[methyl-(2-morpholinoethyl)amino]-1,3-thiazol-4-yl}phenoxy)pentyloxy]-benzamidine]: the activity at 0.1 µM was found to be 55 ± 3.1%. For the same compound, the “% number of osteoclast” value under setting [1] was 27 ± 3.5^ab %. For the same compound, the “% number of osteoclast” value under setting [2] is on record as 22 ± 4.5^ac %.

For the compound `CNc1nc(-c2ccc(OCCCCCOc3ccc(C(=N)NO)cc3)cc2)c(CN2CCOCC2)s1` [Compound 335, N-hydroxy-4-{5-[4-(2-methylamino-5-morpholin-4-ylmethyl-thiazol-4-yl)-phenoxy]-pentyloxy}-benzamidine], the activity at 0.1 µM was determined as 54 ± 0.9%. Besides, under setting [1], the “% number of osteoclast” value is given as 41 ± 2.0^ab %. In addition, under setting [2], the “% number of osteoclast” value was 23 ± 5.0^ac %.

As to `CC(C)c1nc(-c2ccc(OCCCCCOc3ccc(C(=N)NO)cc3)cc2)c(CCN2CCSCC2)s1` [Compound 245, N-hydroxy-4-(5-{4-[2-isopropyl-5-(2-thiomorpholin-4-yl-ethyl)-thiazol-4-yl]-phenoxy}-pentyloxy)-benzamidine], the activity at 0.1 µM turned out to be 35 ± 5.7%. For the same compound, the “% number of osteoclast” value under setting [1] is reported as 23 ± 4.9^b %. Besides, the “% number of osteoclast” value under setting [2] was 16 ± 4.1^ac %.

With `N=C(NO)c1ccc(OCCCCCOc2ccc(-c3nc(C4CCCCC4)sc3CCNC3CC3)cc2)cc1` [Compound 252, N-hydroxy-4-(5-{4-[2-cyclohexyl-5-(2-cyclopropylamino-ethyl)-thiazol-4-yl]-phenoxy}-pentyloxy)-benzamidine], the activity at 0.1 µM stood at 44 ± 2.7%. Further, under setting [1], the “% number of osteoclast” value is on record as 33 ± 6.6^b %. In addition, the “% number of osteoclast” value under setting [2] is listed as 19 ± 4.0^ac %.

In the case of `CCCNc1nc(-c2ccc(OCCCCCOc3ccc(C(=N)NO)cc3)cc2)c(C)s1` [Compound 88, N-hydroxy-4-{5-[4-(5-methyl-2-propylamino-1,3-thiazol-4-yl)phenoxy]pentyloxy}-benzamidine], the activity at 0.1 µM came to 63 ± 7.6%. The “% number of osteoclast” value under setting [1] stood at 61 ± 11.7%. Also, under setting [2], the “% number of osteoclast” value was 29 ± 4.7^ac %.

Consider `N=C(NO)c1ccc(OCCCCCOc2ccc(-c3nc(N4CCOCC4)sc3CCN3CCSCC3)cc2)cc1` [Compound 273, N-hydroxy-4-(5-{4-[2-morpholin-4-yl-5-(2-thiomorpholin-4-yl-ethyl)-thiazol-4-yl]-phenoxy}-pentyloxy)-benzamidine], for which the activity at 0.1 µM turned out to be 53 ± 3.4%. For the same compound, the “% number of osteoclast” value under setting [1] is on record as 25 ± 4.5^ab %. For the same compound, the “% number of osteoclast” value under setting [2] is on record as 11 ± 2.9^ac %.
